Patent US20180371076A1, “MATERNAL TH17 CELLS AND PSYCHIATRIC DISORDERS” (New York University, priority 2017, published 2018)

Legend:
[1] = system: offspring of pregnant mice (MIA mouse model); assay: Three-chamber social approach test in adult offspring; format: in vivo
Protocol: Maternal Immune Activation. Mice were mated overnight and females were checked daily for the presence of seminal plugs, noted as embryonic day 0.5 (E0.5). On E12.5, pregnant female mice were weighed and injected with a single dose (20 mg/kg; i.p.) of poly(I:C) (Sigma Aldrich) or PBS vehicle. Each dam was returned to its cage and left undisturbed until the birth of its litter. All pups remained with the mother until weaning on postnatal day 21 (P21), at which time mice were group housed at maximum 5 per cage with same-sex littermates. For the IL-17 cytokine blockade experiment, monoclonal IL-17a blocking antibody (clone 50104; R&D) or isotype control antibody (IgG2a, clone 54447; R&D) was administered 6 h before maternal immune activation (FIG. 2) via i.p. route (500 μg/animal) or 2 days after maternal immune activation (FIG. 5) via i.p. route (500 μg/animal).
Three-chamber social approach. Twelve-week-old male mice were tested for social behavior using a three-chamber social approach paradigm. Experimental mice were habituated for 1 h in separate clean holding cages and then introduced into a three-chamber arena with only empty object-containment cages (circular metallic cages, Stoelting Neuroscience) for a 10-min acclimation phase in two 5-min sessions in a 3-4 h period. The following day the mice were placed in the center chamber (without access to the left and right social test areas) and allowed to explore the center area for 5 min. […] Experimental mice were given 10 min to explore both chambers and measured for approach behavior as interaction time (i.e. sniffing, approach) with targets in each chamber (within 2 cm, excluding non-nose contact or exploration). Sessions were video-recorded and object exploration time and total distance moved were analyzed using the Noldus tracking system. A social preference index was calculated as the percentage of time spent investigating the social target out of the total exploration time of both objects. […]

IL-17a = IL-17a ELISA of maternal sera and placenta/decidua extract; format: in vivo, mouse; conditions: for maternal serum IL-17a: serum at E14.5-E15.5, vs PBS
Protocol: Cell preparation, Flow cytometry, ELISA. Embryos at each implantation site were dissected in ice-cold HBSS containing Ca^2+ and Mg^2+. Myometrium was first peeled off of the decidua and embryos were discarded. Dissected decidual and placental tissues were then minced and enzymatically dissociated in HBSS containing 0.28 Wunsch units (WU)/mL Liberase (Roche) and 30 μg/ml DNase I (Roche) for 30 min at 37° C. with intermittent mixing. Digested tissues were washed in PBS containing 5 mM EDTA and 5% fetal bovine serum and then incubated again in the same buffer for 15 min at 37° C. prior to filtration through a cell strainer. After separation on a discontinuous 40% & 80% Percoll gradient, the mononuclear cell fraction was treated with ACK lysis buffer (Lonza). Mononuclear cells (1×10^6 cells/mL) were stimulated with phorbol 12-myristate 13-acetate (PMA, 50 ng/mL; Sigma), ionomycin (500 ng/mL; Sigma) in T cell media: RPMI 1640 (Invitrogen) supplemented with 10% (v/v) heat-inactivated FBS (Hyclone), 50 U penicillin-streptomycin (Invitrogen), 2 mM glutamine, and 50 μM β-mercaptoethanol. Cell culture supernatant was used for ELISA analyses. For flow cytometry, cells were incubated for 5 h with PMA, ionomycin and GolgiStop (BD). Intracellular cytokine staining was performed according to the manufacturer's protocol (Cytofix/Cytoperm buffer set from BD with alexa647-conjugated anti-IL-17a (eBioscience) and PE-conjugated anti-IFN-γ). LSR II (BD Biosciences) and FlowJo software (Tree Star) were used for flow cytometry and analysis. Dead cells were excluded using the Live/Dead fixable aqua dead cell stain kit (Invitrogen). Placenta/decidua extract were prepared by homogenizing samples in Tissue Extraction Reagent I (Invitrogen, FN0071) in the presence of protease inhibitor cocktail (Roche, 11873580001) on ice using pestles. The homogenates were centrifuged at 4° C. at 13,000 rpm for 20 min, and the supernatants were aliquotted and frozen at −80° C. For ELISA with sera and placenta/decidua extract, IL-6 (Ebioscience), IL-17a (Biolgened), and IL-10 (BD) were measured according to the manufacturer's protocol.
Cell preparation, Flow cytometry, ELISA Embryos at each implantation site were dissected in ice-cold HBSS containing Ca2+ and Mg2+ (Gibco). Myometrium was first peeled off of the decidua and embryos were discarded. Dissected decidual and placental tissues were then minced and enzymatically dissociated in HBSS containing 0.28 Wunsch units (WU)/mL Liberase (Roche) and 30 μg/mL DNase I (Roche) for 30 min at 37° C. with intermittent mixing. Digested tissues were washed in PBS containing 5 mM EDTA and 5% fetal bovine serum and then incubated again in the same buffer for 15 min at 37° C. prior to filtration through a cell strainer. After separation on a discontinuous 40% & 80% Percoll gradient, the mononuclear cell fraction was treated with ACK lysis buffer (Lonza). Mononuclear cells (1×10^6 cells/mL) were cultured for 24 h with or without phorbol 12-myristate 13-acetate (PMA, 50 ng/mL; Sigma) and ionomycin (500 ng/mL; Sigma) in T cell media: RPMI 1640 (Invitrogen) supplemented with 10% (v/v) heat-inactivated FBS (Hyclone), 50 U penicillin-streptomycin (Invitrogen), 2 mM glutamine, and 50 μM β-mercaptoethanol. Cell culture supernatant was used for ELISA analyses. Unstimulated cells were used to prepare total RNA for qPCR analyses. For flow cytometry, cells were incubated for 5 h with PMA, ionomycin and GolgiStop (BD). […]

## poly(I:C)
[1]; prenatal exposure to MIA (poly(I:C) at E12.5)
  social interaction in adult offspring: social interaction deficits
IL-17a; PBS- or poly(I:C)-treated mothers
  IL-17a in placenta/decidua extracts: could not be detected
IL-17a; poly(I:C) at E12.5
  time until serum IL-17a is detected after injection: 2 to 3 days
  maternal serum IL-17a: strong increase
IL-17a; poly(I:C) at E12.5, listed as Poly(I:C)
  maternal serum IL-17a: further increase
IL-17a; poly(I:C) injected mothers
  serum IL-17a at later embryonic stages: continue to rise until E19.5
IL-17a; poly(I:C) into pregnant dams lacking IL-6 (IL-6 KO)
  serum IL-17a at E14.5: failed to increase

B1: recombinant IL-6: carrier-free recombinant mouse IL-6 (R&D) (protein, UniProt P08505 25-211, looked up)
Interleukin-6: FPTSQVRRGDFTEDTTPNRPVYTTSQVGGLITHVLWEIVEMRKELCNGNSDCMNNDDALAENNLKLPEIQRNDGCYQTGYNQEICLLKISSGLLEYHSYLEYMKNNLKDNKKDKARVLQRDTETLIHIFNQEVKDLHKIVLPTPISNALLTDKLESQKEWLRTKTIQFILKSLEEFLKVTLRSTRQT
IL-17a; injection into wild-type (WT) mothers
  maternal serum IL-17a at E14.5: sufficient to induce IL-17a levels comparable to those of poly(I:C)-injected WT mothers

B2: recombinant IL-17a protein: Recombinant mouse IL-17a cytokine (R&D), injected into the fetal brain ventricle (protein, UniProt Q62386 26-158, looked up)
Interleukin-17A: AAIIPQSSACPNTEAKDFLQNVKVNLKVFNSLGAKVSSRRPSDYLNRSTSPWTLHRNEDPDRYPSVIWEAQCRHQRCVNAEGKLDHHMNSVLIQQEILVLKREPESCPFTFRVEKMLVGVGCTCVASIVRQAA
[1]; intra-ventricular injection at E14.5
  mobility (total distance in social approach test): not due to group differences in mobility
[1]; intra-ventricular injection at E14.5, compared with sham injection
  social approach behavior: social approach deficit
